Measured values from patent US20020137929A1, “1 - (3-heterocyclylphenyl) isothiourea, -isourea, -guanidine and -amidine herbicidal agents” (Intellectual Property Department, BASF Aktiengesellschaft, priority 1998, published 2002).

Experiments:
[1] = tested on: ECHORC (Watergrass (Calif.)); assay: Preemergence weed control under flooded paddy conditions; type: in vivo, Echinochloa oryzoides; conditions: rated 3-4 weeks after treatment
Method in brief: (§1)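 First, seeds or propagules go into the top 0.5 cm of silt loam; next, water is held 1.5 to 3 cm over the soil; then compound (50/50 acetone/water) is pipetted into it at about 0.0313 to 0.500 kg/ha; finally plants are rated visually 0-9 after three to four weeks.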

ZEAMX (Corn, Field) [2] = assay: Preemergence herbicidal evaluation; type: in vivo, Zea mays; conditions: rated 4-5 weeks after treatment
Method in brief: (§2)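 Scores use a 0–9 visual scale covering stand, vigor, malformation, size and chlorosis relative to controls, rated four to five weeks after treatment. Before emergence, soil-planted seeds were sprayed with compound in aqueous acetone at roughly 0.0156–0.500 kg/ha and held in the greenhouse.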

CYPSE (Flatsedge) = assay: Preemergence weed control under flooded paddy conditions; type: in vivo, Cyperus serotinus; conditions: rated 3-4 weeks after treatment
Method in brief: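 Seeds or propagules sown in silt loam kept flooded 1.5-3 cm; compounds in 50/50 acetone/water pipetted into flood water at about 0.0313 to 0.500 kg/ha. Greenhouse; visual 0-9 rating versus untreated control 3-4 weeks after treatment.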

AMBEL (Ragweed, Common) = assay: Preemergence herbicidal evaluation; type: in vivo, Ambrosia artemisifolia; conditions: rated 4-5 weeks after treatment
Method in brief: as §2

CASOB (Sicklepod) = assay: Postemergence herbicidal evaluation; type: in vivo, Cassia obtusifolia; conditions: for herbicidal rating CASOB: postemergence
Method in brief: (§3)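 Compound is applied as a foliar spray to seedlings about two weeks old, formulated in equal parts acetone and water with 0.5% TWEEN 20 and delivered at 40 psi to give about 0.0156–0.500 kg per hectare. Injury is rated visually 0–9 after four to five weeks.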

[3] = tested on: IPOHE (Morningglory, Ivyleaf); assay: Preemergence herbicidal evaluation; type: in vivo, Ipomoea hederacea; conditions: rated 4-5 weeks after treatment
Method in brief: as §2

[4] = tested on: CHEAL (Lambsquarters, Common); assay: Preemergence herbicidal evaluation; type: in vivo, Chenopodium album; conditions: rated 4-5 weeks after treatment
Method in brief: as §2

ZEAMX (Corn, Field) [5] = assay: Postemergence herbicidal evaluation; type: in vivo, Zea mays; conditions: for herbicidal rating ZEAMX: postemergence
Method in brief: as §3

GALAP (Galium) = assay: Postemergence herbicidal evaluation; type: in vivo, Galium aparine; conditions: for herbicidal rating GALAP: postemergence
Method in brief: as §3

CYPIR (Rice Flatsedge) = assay: Preemergence weed control under flooded paddy conditions; type: in vivo, Cyperus iria; conditions: rated 3-4 weeks after treatment
Method in brief: as §1

ORYSAT (Rice, Tebonnet) = assay: Preemergence herbicidal evaluation; type: in vivo, Oryza sativa, (L.) Tebonnet; conditions: rated 4-5 weeks after treatment
Method in brief: as §2

[6] = tested on: TRZAWR (Wheat, Winter, cv Riband); assay: Preemergence herbicidal evaluation; type: in vivo, Triticum aestivum; conditions: rated 4-5 weeks after treatment
Method in brief: as §2

## C#CC(C)N1C(=O)CSC1=Nc1cc(-n2c(=O)cc(C(F)(F)F)n(C)c2=O)c(F)cc1Cl (stereo not shown) [Compound 165, 3-{4-Chloro-2-fluoro-5-{[3-(1-methyl-2-propynyl)-4-oxo-2-thiazolidinylidene]amino}phenyl}-1-methyl-6-(trifluoromethyl)-2,4(1H,3H)-pyrimidinedione]
[1]; 0.0313 kg/ha
  herbicidal effect rating, ECHORC: 9.0
[1]; 0.0625 kg/ha
  herbicidal effect rating, ECHORC: 9.0
[1]; 0.1250 kg/ha
  herbicidal effect rating, ECHORC: 9.0
[1]; 0.2500 kg/ha
  herbicidal effect rating, ECHORC: 9.0
ZEAMX (Corn, Field) [2]; 0.0156 kg/ha
  Preemergence herbicidal rating ZEAMX: 0.0
ZEAMX (Corn, Field) [2]; 0.0313 kg/ha
  Preemergence herbicidal rating ZEAMX: 0.0
ZEAMX (Corn, Field) [2]; 0.0625 kg/ha
  Preemergence herbicidal rating ZEAMX: 1.0
ZEAMX (Corn, Field) [2]; 0.1250 kg/ha
  Preemergence herbicidal rating ZEAMX: 1.0
ZEAMX (Corn, Field) [2]; 0.2500 kg/ha
  Preemergence herbicidal rating ZEAMX: 4.0
ZEAMX (Corn, Field) [2]; 0.5000 kg/ha
  Preemergence herbicidal rating ZEAMX: 7.0
CYPSE (Flatsedge); 0.0313 kg/ha
  herbicidal effect rating, CYPSE: 0.0
CYPSE (Flatsedge); 0.1250 kg/ha
  herbicidal effect rating, CYPSE: 0.0
CYPSE (Flatsedge); 0.2500 kg/ha
  herbicidal effect rating, CYPSE: 3.0
AMBEL (Ragweed, Common); 0.0156 kg/ha
  Preemergence herbicidal rating AMBEL: 0.0
AMBEL (Ragweed, Common); 0.0313 kg/ha
  Preemergence herbicidal rating AMBEL: 1.0
AMBEL (Ragweed, Common); 0.0625 kg/ha
  Preemergence herbicidal rating AMBEL: 0.0
AMBEL (Ragweed, Common); 0.1250 kg/ha
  Preemergence herbicidal rating AMBEL: 7.0
AMBEL (Ragweed, Common); 0.2500 kg/ha
  Preemergence herbicidal rating AMBEL: 7.0
AMBEL (Ragweed, Common); 0.5000 kg/ha
  Preemergence herbicidal rating AMBEL: 9.0
CASOB (Sicklepod); rate 0.0156 kg/ha
  herbicidal rating CASOB: 0.0
CASOB (Sicklepod); rate 0.0313 kg/ha
  herbicidal rating CASOB: 2.0
CASOB (Sicklepod); rate 0.0625 kg/ha
  herbicidal rating CASOB: 3.0
CASOB (Sicklepod); rate 0.1250 kg/ha
  herbicidal rating CASOB: 3.0
[3]; 0.0156 kg/ha
  Preemergence herbicidal rating IPOHE: 0.0
[3]; 0.0313 kg/ha
  Preemergence herbicidal rating IPOHE: 0.0
[3]; 0.1250 kg/ha
  Preemergence herbicidal rating IPOHE: 2.0
[3]; 0.2500 kg/ha
  Preemergence herbicidal rating IPOHE: 9.0
[3]; 0.5000 kg/ha
  Preemergence herbicidal rating IPOHE: 9.0
[4]; 0.0156 kg/ha
  Preemergence herbicidal rating CHEAL: 4.0
[4]; 0.0313 kg/ha
  Preemergence herbicidal rating CHEAL: 9.0
[4]; 0.0625 kg/ha
  Preemergence herbicidal rating CHEAL: 9.0
[4]; 0.1250 kg/ha
  Preemergence herbicidal rating CHEAL: 9.0
[4]; 0.2500 kg/ha
  Preemergence herbicidal rating CHEAL: 9.0
[4]; 0.5000 kg/ha
  Preemergence herbicidal rating CHEAL: 9.0
ZEAMX (Corn, Field) [5]; rate 0.0156 kg/ha
  herbicidal rating ZEAMX: 4
ZEAMX (Corn, Field) [5]; rate 0.0313 kg/ha
  herbicidal rating ZEAMX: 5.0
ZEAMX (Corn, Field) [5]; rate 0.0625 kg/ha
  herbicidal rating ZEAMX: 5.0
ZEAMX (Corn, Field) [5]; rate 0.1250 kg/ha
  herbicidal rating ZEAMX: 5.5
GALAP (Galium); rate 0.0156 kg/ha
  herbicidal rating GALAP: 0.0
GALAP (Galium); rate 0.0313 kg/ha
  herbicidal rating GALAP: 1.0
GALAP (Galium); rate 0.0625 kg/ha
  herbicidal rating GALAP: 4.0
GALAP (Galium); rate 0.1250 kg/ha
  herbicidal rating GALAP: 5.0
CYPIR (Rice Flatsedge); 0.0313 kg/ha
  herbicidal effect rating, CYPIR: 6.0
CYPIR (Rice Flatsedge); 0.0625 kg/ha
  herbicidal effect rating, CYPIR: 7.0
CYPIR (Rice Flatsedge); 0.1250 kg/ha
  herbicidal effect rating, CYPIR: 9.0
CYPIR (Rice Flatsedge); 0.2500 kg/ha
  herbicidal effect rating, CYPIR: 9.0
ORYSAT (Rice, Tebonnet); 0.0156 kg/ha
  Preemergence herbicidal rating ORYSAT: 0.0
ORYSAT (Rice, Tebonnet); 0.0313 kg/ha
  Preemergence herbicidal rating ORYSAT: 0.0
ORYSAT (Rice, Tebonnet); 0.0625 kg/ha
  Preemergence herbicidal rating ORYSAT: 0.0
ORYSAT (Rice, Tebonnet); 0.1250 kg/ha
  Preemergence herbicidal rating ORYSAT: 1.0
ORYSAT (Rice, Tebonnet); 0.2500 kg/ha
  Preemergence herbicidal rating ORYSAT: 3.0
ORYSAT (Rice, Tebonnet); 0.5000 kg/ha
  Preemergence herbicidal rating ORYSAT: 5.0
[6]; 0.0156 kg/ha
  Preemergence herbicidal rating TRZAWR: 0.0
[6]; 0.0313 kg/ha
  Preemergence herbicidal rating TRZAWR: 0.0
[6]; 0.0625 kg/ha
  Preemergence herbicidal rating TRZAWR: 0.0
[6]; 0.1250 kg/ha
  Preemergence herbicidal rating TRZAWR: 1.0
[6]; 0.2500 kg/ha
  Preemergence herbicidal rating TRZAWR: 2.0
[6]; 0.5000 kg/ha
  Preemergence herbicidal rating TRZAWR: 4.0

## CCCN1C(=O)CSC1=Nc1cc(-n2c(=O)cc(C(F)(F)F)n(C)c2=O)c(F)cc1Cl [Compound 171, 3-{4-Chloro-2-fluoro-5-[(4-oxo-3-propyl-2-thiazolidinylidene)amino]phenyl}-1-methyl-6-(trifluoromethyl)-2,4 (1H, 3H)-pyrimidinedione]
[1]; 0.0313 kg/ha
  herbicidal effect rating, ECHORC: 8.0
[1]; 0.0625 kg/ha
  herbicidal effect rating, ECHORC: 9.0
[1]; 0.1250 kg/ha
  herbicidal effect rating, ECHORC: 9.0
[1]; 0.2500 kg/ha
  herbicidal effect rating, ECHORC: 9.0
ZEAMX (Corn, Field) [2]; 0.0156 kg/ha
  Preemergence herbicidal rating ZEAMX: 2.0
ZEAMX (Corn, Field) [2]; 0.0313 kg/ha
  Preemergence herbicidal rating ZEAMX: 6.0
ZEAMX (Corn, Field) [2]; 0.0625 kg/ha
  Preemergence herbicidal rating ZEAMX: 8.0
ZEAMX (Corn, Field) [2]; 0.1250 kg/ha
  Preemergence herbicidal rating ZEAMX: 8.0
ZEAMX (Corn, Field) [2]; 0.2500 kg/ha
  Preemergence herbicidal rating ZEAMX: 9.0
CYPSE (Flatsedge); 0.0313 kg/ha
  herbicidal effect rating, CYPSE: 9.0
CYPSE (Flatsedge); 0.0625 kg/ha
  herbicidal effect rating, CYPSE: 9.0
CYPSE (Flatsedge); 0.1250 kg/ha
  herbicidal effect rating, CYPSE: 9.0
CYPSE (Flatsedge); 0.2500 kg/ha
  herbicidal effect rating, CYPSE: 9.0
AMBEL (Ragweed, Common); 0.0156 kg/ha
  Preemergence herbicidal rating AMBEL: 3.0
AMBEL (Ragweed, Common); 0.0313 kg/ha
  Preemergence herbicidal rating AMBEL: 4.0
AMBEL (Ragweed, Common); 0.0625 kg/ha
  Preemergence herbicidal rating AMBEL: 9.0
AMBEL (Ragweed, Common); 0.1250 kg/ha
  Preemergence herbicidal rating AMBEL: 9.0
AMBEL (Ragweed, Common); 0.2500 kg/ha
  Preemergence herbicidal rating AMBEL: 9.0
CASOB (Sicklepod); Rate 0.0156 kg/ha
  Postemergence herbicidal rating CASOB: 2.0
CASOB (Sicklepod); Rate 0.0313 kg/ha
  Postemergence herbicidal rating CASOB: 3.0
CASOB (Sicklepod); rate 0.0625 kg/ha
  herbicidal rating CASOB: 4.0
[3]; 0.0156 kg/ha
  Preemergence herbicidal rating IPOHE: 2.0
[3]; 0.0313 kg/ha
  Preemergence herbicidal rating IPOHE: 3.0
[3]; 0.0625 kg/ha
  Preemergence herbicidal rating IPOHE: 9.0
[3]; 0.1250 kg/ha
  Preemergence herbicidal rating IPOHE: 9.0
[3]; 0.2500 kg/ha
  Preemergence herbicidal rating IPOHE: 9.0
[4]; 0.0156 kg/ha
  Preemergence herbicidal rating CHEAL: 9.0
[4]; 0.0313 kg/ha
  Preemergence herbicidal rating CHEAL: 9.0
[4]; 0.0625 kg/ha
  Preemergence herbicidal rating CHEAL: 9.0
[4]; 0.1250 kg/ha
  Preemergence herbicidal rating CHEAL: 9.0
[4]; 0.2500 kg/ha
  Preemergence herbicidal rating CHEAL: 9.0
ZEAMX (Corn, Field) [5]; Rate 0.0156 kg/ha
  Postemergence herbicidal rating ZEAMX: 5.0
ZEAMX (Corn, Field) [5]; Rate 0.0313 kg/ha
  Postemergence herbicidal rating ZEAMX: 6.5
ZEAMX (Corn, Field) [5]; rate 0.0625 kg/ha
  herbicidal rating ZEAMX: 7.0
GALAP (Galium); Rate 0.0156 kg/ha
  Postemergence herbicidal rating GALAP: 3.0
GALAP (Galium); Rate 0.0313 kg/ha
  Postemergence herbicidal rating GALAP: 6.0
GALAP (Galium); rate 0.0625 kg/ha
  herbicidal rating GALAP: 7.0
CYPIR (Rice Flatsedge); 0.0313 kg/ha
  herbicidal effect rating, CYPIR: 3.0
CYPIR (Rice Flatsedge); 0.0625 kg/ha
  herbicidal effect rating, CYPIR: 9.0
CYPIR (Rice Flatsedge); 0.1250 kg/ha
  herbicidal effect rating, CYPIR: 9.0
CYPIR (Rice Flatsedge); 0.2500 kg/ha
  herbicidal effect rating, CYPIR: 9.0
ORYSAT (Rice, Tebonnet); 0.0156 kg/ha
  Preemergence herbicidal rating ORYSAT: 2.0
ORYSAT (Rice, Tebonnet); 0.0313 kg/ha
  Preemergence herbicidal rating ORYSAT: 4.0
ORYSAT (Rice, Tebonnet); 0.0625 kg/ha
  Preemergence herbicidal rating ORYSAT: 5.0
ORYSAT (Rice, Tebonnet); 0.1250 kg/ha
  Preemergence herbicidal rating ORYSAT: 6.0
ORYSAT (Rice, Tebonnet); 0.2500 kg/ha
  Preemergence herbicidal rating ORYSAT: 8.0
[6]; 0.0156 kg/ha
  Preemergence herbicidal rating TRZAWR: 2.0
[6]; 0.0313 kg/ha
  Preemergence herbicidal rating TRZAWR: 3.0
[6]; 0.0625 kg/ha
  Preemergence herbicidal rating TRZAWR: 6.0
[6]; 0.1250 kg/ha
  Preemergence herbicidal rating TRZAWR: 6.0
[6]; 0.2500 kg/ha
  Preemergence herbicidal rating TRZAWR: 8.0
